# Where “and” joins values, the source holds several entries; their conditions need not be identical. Equal entries are not always repeated.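 How tested: cells in 96-well plates exposed to compound for 48 hours at five concentrations. GI50: concentration for 50% inhibition of growth. TGI denotes the concentration required for complete inhibition of growth.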
# How the values were obtained:
# Assay in all cases: NCI-60 cell line screen, 48 h
# [1] = system: DLD-1 colon
# [2] = system: EKVX NSCLC
# [3] = system: LXFL 529 NSCLC
# [4] = system: M19-MEL melanoma
# [5] = system: RPMI-8226 leukemia
# [6] = system: SF-539 CNS
# [7] = system: SK-MEL-2 melanoma
# [8] = system: SNB-75 CNS
# [9] = system: XF 498 CNS
# [10] = system: DMS 114 small cell lung
# [11] = system: SNB-78 CNS
SMILES,GI50 [1] [µM],TGI [1],GI50 [2] [µM],TGI [2],GI50 [3] [µM],TGI [3],GI50 [4] [µM],TGI [4],GI50 [5] [µM],TGI [5],TGI [6],GI50 [7] [µM],TGI [7],GI50 [8] [µM],TGI [8],TGI [9] [µM],TGI [10] [µM],TGI [11] [µM]
NC(CS)C(=O)NCCNc1ccc(NCCNC(=O)C(N)CS)c2c1C(=O)c1c(O)ccc(O)c1C2=O (stereo not given),0.0638,1.03 µM and 0.762 µM,0.0538,1.05 µM and 0.274 µM,0.0673,0.927 µM and 0.631 µM,0.138,0.863 µM and 1.01 µM,0.0152,0.744 µM and 0.0804 µM,0.728 µM and 0.193 µM,0.227,1.38 µM and 0.87 µM,0.0146,0.2 µM and 0.206 µM,0.463,–,–
C[C@]12CCC(=O)C=C1CC[C@@H]1C2CC[C@@]2(C)C1CC[C@@H]2OC(=O)C12OC1CCC2=O (stereo not given in full),–,–,–,31.9 µM,–,28 µM,–,30.3 µM,–,52.1 µM,36.6 µM,–,29.8 µM,–,33.9 µM,27.9,34.3,33.9
COC(=O)CC1NC(=O)C1C(C)(OC)OC (stereo not given),–,> 100 µM,–,> 100 µM,–,> 100 µM,–,> 100 µM,–,> 100 µM,> 100 µM,–,> 100 µM,–,> 100 µM,> 100,> 100,–
NNC(=S)NN/C=C(\C=Nc1ccccc1)[N+](=O)[O-],–,> 100 µM,–,> 100 µM,–,> 100 µM,–,> 100 µM,–,> 100 µM,> 100 µM,–,> 100 µM,–,> 100 µM,> 100,> 100,–
CN(C)CCNC(=O)c1cccc2[nH]c(-c3ccc(Cl)cc3)nc12,–,24.5 µM,–,34.3 µM,–,–,–,19.7 µM,–,8.78 µM,16.9 µM,–,26.5 µM,–,15.3 µM,17.6,21.7,37.7
COc1cc(CC2C(=O)OCC2[C@@H](OC(C)=O)c2ccc3c(c2)OCO3)c(Br)c(OC)c1OC (stereo not given in full),–,> 100 µM,–,> 100 µM,–,> 100 µM,–,> 100 µM,–,–,> 100 µM,–,> 100 µM,–,> 100 µM,> 100,> 100,–

# — PubChem BioAssay (NCI)
